Each structure is given as a SMILES string.

T2 sequence (P26663 1027-1657): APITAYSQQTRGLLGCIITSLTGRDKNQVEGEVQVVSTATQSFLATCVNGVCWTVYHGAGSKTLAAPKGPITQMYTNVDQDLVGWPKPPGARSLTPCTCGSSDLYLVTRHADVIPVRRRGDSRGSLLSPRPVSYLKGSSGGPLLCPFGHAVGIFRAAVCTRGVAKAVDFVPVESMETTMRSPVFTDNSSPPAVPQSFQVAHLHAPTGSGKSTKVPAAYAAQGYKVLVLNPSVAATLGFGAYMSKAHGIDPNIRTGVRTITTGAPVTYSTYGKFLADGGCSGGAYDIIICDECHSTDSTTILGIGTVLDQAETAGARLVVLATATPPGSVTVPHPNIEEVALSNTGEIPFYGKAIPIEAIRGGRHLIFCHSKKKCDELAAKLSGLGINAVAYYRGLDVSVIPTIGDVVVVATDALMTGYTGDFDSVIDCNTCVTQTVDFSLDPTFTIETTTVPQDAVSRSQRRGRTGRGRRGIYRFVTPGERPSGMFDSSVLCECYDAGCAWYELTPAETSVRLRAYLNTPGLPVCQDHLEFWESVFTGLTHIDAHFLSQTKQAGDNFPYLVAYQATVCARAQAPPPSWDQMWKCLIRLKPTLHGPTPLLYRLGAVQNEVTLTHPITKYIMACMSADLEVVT
T2 sequence (P26663 1658-1711): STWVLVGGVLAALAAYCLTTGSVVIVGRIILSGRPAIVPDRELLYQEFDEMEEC

The target in the first assay is T1, NS3 protease domain complexed to a modified form of the NS4A peptide (Pep4AK) (Hepatitis C virus genotype 1b, UniProt P26663).
T1 construct: NS3 protease domain (residues 1027–1206 of the HCV polyprotein)
T1 sequence (P26663 1027-1206, other chains not shown): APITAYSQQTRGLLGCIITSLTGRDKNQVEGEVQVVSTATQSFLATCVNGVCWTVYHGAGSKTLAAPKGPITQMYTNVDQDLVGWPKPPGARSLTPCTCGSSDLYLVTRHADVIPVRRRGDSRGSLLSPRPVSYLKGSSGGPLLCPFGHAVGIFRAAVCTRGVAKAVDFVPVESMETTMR
Put plainly: HCV NS3 protease domain/NS4A cofactor peptide assay (Assay B). The assay is classed as biochemical. The following applies: NS3 protease domain/NS4A cofactor peptide assay; read-out: Assay B (IC50 class).
Consider `CC(C)C[C@H](NC(=O)C1(Cc2cccc(C(=O)O)c2)Cc2ccccc2N1)C(=O)N[C@@H](CS)C(=O)NCCc1ccc(C(=O)O)cc1` (mixture of isomers) [Compound 701], for which the IC50 is less than 100 µM.
On to `CCOC(=O)CNc1cccc(CCNC(=O)C(CC(F)F)NC(=O)C(CC(C)C)NC(=O)c2ccccc2-c2ccccc2C(=O)O)c1` (stereo not shown) [Compound 721], for which the IC50 is less than 100 µM.

Still in this assay, the particulars now being: Table 1; NS3 protease domain/Pep4AK, 4AB peptide substrate; read-out: Assay B.
Turning to `CC(C)COC(=O)NC(CCC(=O)O)C(=O)NC(CC(C)C)C(=O)NC(CS)C(=O)NCC1(c2ccccc2)CCC1` (stereo not shown) [Compound 110], the IC50 is less than 100 µM.
Same read-out and setting: the figure for `CC(C)COC(=O)N[C@@H](CCC(=O)O)C(=O)N[C@@H](CC(C)C)C(=O)N[C@@H](CS)C(=O)NCCc1cccc(/C=C/C(=O)O)c1` [Compound 134] is less than 10 µM.
Still for that read-out and setting: the figure for `CC(C)COC(=O)NC(CCC(=O)O)C(=O)NC(CC(C)C)C(=O)NC(CS)C(=O)NCCc1cccc(C(F)(F)F)c1` (stereo not shown) [Compound 131] is less than 100 µM.
In the case of `CC(C)COC(=O)NC(CCC(=O)O)C(=O)NC(CC(C)C)C(=O)NC(CS)C(=O)NCCc1ccc(C(F)(F)F)cc1` (stereo not shown) [Compound 149], the IC50 is less than 100 µM.
On to `CC(C)COC(=O)N[C@@H](CCC(=O)O)C(=O)N[C@@H](CC(C)C)C(=O)N[C@@H](CS)C(=O)NCCc1ccc(/C=C/C(=O)O)cc1` [Compound 158], for which the IC50 is less than 10 µM.
For the molecule `CC(C)COC(=O)NC(CCC(=O)O)C(=O)NC(CC(C)C)C(=O)NC(CS)C(=O)NCCc1ccc(C(=O)O)cc1F` (stereo not shown) [Compound 186], the IC50 is less than 1 µM.
With `CCOC(=O)/C=C/c1cccc(CCNC(=O)[C@H](CS)NC(=O)[C@H](CC(C)C)NC(=O)[C@H](CCC(=O)O)NC(=O)OCC(C)C)c1` [Compound 135], the IC50 was less than 100 µM.
As for `CC(C)COC(=O)NC(CCC(=O)O)C(=O)NC(CC(C)C)C(=O)NC(CS)C(=O)NCCc1ccc(Oc2ccccc2)cc1` (stereo not shown) [Compound 145], the IC50 is less than 100 µM.
On to `CCOC(=O)/C=C/c1ccc(CCNC(=O)[C@H](CS)NC(=O)[C@H](CC(C)C)NC(=O)[C@H](CCC(=O)O)NC(=O)OCC(C)C)cc1` [Compound 157], for which the IC50 was less than 10 µM.

Staying with this assay, now noted: Table 2; NS3 protease domain/Pep4AK; read-out: Assay B.
As for `CC(C)C[C@H](NC(=O)[C@H](CCC(=O)O)NS(=O)(=O)Cc1ccccc1)C(=O)N[C@@H](CS)C(=O)NCCc1ccc(Cl)cc1Cl` [Compound 256], the IC50 was less than 100 µM.
Take `COc1ccc(CCNC(=O)[C@H](CS)NC(=O)[C@H](CC(C)C)NC(=O)[C@H](CCC(=O)O)NC(=O)c2ccco2)cc1` [Compound 214]: the IC50 was less than 100 µM.
As to `COc1ccc(C(=O)N[C@@H](CCC(=O)O)C(=O)N[C@@H](CC(C)C)C(=O)N[C@@H](CS)C(=O)NCCc2ccccc2Cl)cc1OC` [Compound 205], the IC50 is less than 100 µM.
Turning to `COc1ccc(CCNC(=O)[C@H](CS)NC(=O)[C@H](CC(C)C)NC(=O)[C@H](CCC(=O)O)NC(=O)c2cc3ccccc3s2)cc1` [Compound 213], the IC50 is less than 100 µM.
On to `CC(C)C[C@H](NC(=O)[C@H](CCC(=O)O)NC(=O)CC1NC(=O)NC1=O)C(=O)N[C@@H](CS)C(=O)NCCc1ccc(Cl)cc1Cl` (stereo partly shown) [Compound 238], for which the IC50 was less than 100 µM.
`CC(C)C[C@H](NC(=O)[C@H](CCC(=O)O)NC(=O)[C@@H](O)c1ccccc1)C(=O)N[C@@H](CS)C(=O)NCCc1ccccc1Cl` [Compound 221]: the IC50 is less than 10 µM.

Another assay has as its target T2, full length NS3 protein noncovalently complexed with the full-length NS4A cofactor protein (NS3/NS4A complex) (Hepatitis C virus genotype 1b, UniProt P26663).
T2 construct: full length NS3 protein spanning residues 1027–1657 of the HCV polyprotein
Kind of assay: Full-length NS3-NS4A heterodimer protein assay (Assay A). The assay is classed as biochemical, hepatitis C virus (HCV). The note with it: Table 5; full-length NS3/NS4A; read-out: AssayA. How it is done:
Full-Length NS3-NS4A Heterodimer Protein Assay (Assay A)
(Gallinari, P., Paolini, C., Brennan, D., Nardi, C., Steinkühler, C. and De Francesco, R. Modulation of hepatitis C virus NS3 protease and helicase activities through the interaction with NS4A. Biochemistry 38, 5620–5632, 1999)
In this assay the full length NS3 protein spanning residues 1027–1657 of the HCV polyprotein, noncovalently complexed with the full-length NS4A cofactor protein (residues 1658–1711) was used. Assays were performed in 60 μl of a buffer containing 50 mM Hepes pH 7.5, 0.15 M NaCl, 0.1% (v/v) Triton X-100, 15% (v/v) glycerol, 10 mM DTT, 2 nM NS3/NS4A complex. To this assay mix 10 μM (final concentration) of a peptide substrate corresponding to the NS5AB cleavage site and having the sequence of the NS5A-NS5B peptide, were added. Incubation times at 23° C. were adjusted to obtain <10% conversion. Reactions were stopped by the addition of 40 μl of 1% TFA. Cleavage was determined by HPLC using a Merck-Hitachi chromatograph equipped with an autosampler. 80 μl samples were injected on a Lichrospher C18 reversed phase cartridge column (4×74 mm, 5 μm, Merck) and fragments were separated using a 10–40% acetonitrile gradient at 5%/min using a flow rate of 2.5 ml/min. Peak detection was done by monitoring both the absorbance at 220 nm and tryptophan fluorescence (λex=280 nm, λem=350 nm). Cleavage products were quantitated by integration of chromatograms with respect to appropriate standards. Kinetic parameters were calculated from nonlinear least-squares fit of initial rates as a function of substrate concentration with the help of a Kaleidagraph software, assuming Michaelis-Menten kinetics.
Ki values of peptide inhibitors were calculated from substrate titration experiments performed in the presence of increasing amounts of inhibitor. Experimental data sets were simultaneously fitted to eg.1 using a multicurve fit macro with the help of a Sigmaplot software: V=(VmaxS)/(Km([…])+S); (eq.1) Alternatively, Ki values were derived from IC50 values, calculated using a four-parameter logistic function, according to eq.2: IC50=(1+S/Km)Ki (eq.2)
With `CC(C)COC(=O)NC(C(=O)N1CCCC1C(=O)NC(CC(F)F)C(=O)NCCc1c(F)cc(C(=O)O)cc1F)C(C)C` (stereo not shown) [Compound 502], the IC50 is less than 10000 nM.
On the same count and under the same terms, the figure for `CC(C)COC(=O)N[C@H](C(=O)N1C[C@H](c2ccccc2)C[C@H]1C(=O)N[C@@H](CC(F)F)C(=O)NCCc1c(F)cc(-c2nn[nH]n2)cc1F)C(C)C` [Compound 554] is less than 1000 nM; for `CC(C)COC(=O)N[C@H](C(=O)N1C[C@H](c2ccccc2)C[C@H]1C(=O)N[C@@H](CC(F)F)C(=O)NCCc1cccc(/C=C/C(=O)O)c1F)C(C)C` [Compound 560] it is less than 1000 nM.
As to `CC(C)COC(=O)N[C@H](C(=O)N1C[C@@H](OCc2ccccc2)C[C@H]1C(=O)N[C@@H](CC(F)F)C(=O)NCCc1c(F)cc(C(=O)O)cc1F)C(C)C` [Compound 527], the IC50 is less than 10000 nM.
As to `CC(C)COC(=O)N[C@H](C(=O)N1C[C@H](c2ccccc2)C[C@H]1C(=O)N[C@@H](CC(F)F)C(=O)NCCc1c(F)cc(C(=O)OC(C)C)cc1F)C(C)C` [Compound 524], the IC50 was less than 100000 nM.
Same read-out and setting: under `CC(C)COC(=O)N[C@@H](CCC(=O)O)C(=O)N1C[C@H](OCc2ccccc2)C[C@H]1C(=O)N[C@@H](CS)C(=O)NCCc1ccccc1Cl` [Compound 507] stands less than 10000 nM; under `CC(C)COC(=O)N[C@H](C(=O)N1C[C@H](S(=O)(=O)C2CCCCC2)C[C@H]1C(=O)N[C@@H](CC(F)F)C(=O)NCCc1c(F)cc(C(=O)O)cc1F)C(C)C` [Compound 553], less than 1000 nM.
With `CC(C)COC(=O)N[C@H](C(=O)N1C[C@H](c2ccccc2)C[C@H]1C(=O)N[C@@H](CC(F)F)C(=O)NCCc1cccc(OC(C(=O)O)c2ccc(Br)cc2)c1)C(C)C` (mixture of isomers) [Compound 570], the IC50 was less than 1000 nM.
On the same count and under the same terms, the figure for `CC(C)COC(=O)N[C@H](C(=O)N1C[C@H](C2CCCCC2)C[C@H]1C(=O)N[C@@H](CC(F)F)C(=O)NCCc1c(F)cc(C(=O)O)cc1F)C(C)(C)C` [Compound 536] is less than 10000 nM.
Consider `CC(C)COC(=O)N[C@H](C(=O)N1C[C@H](c2ccccc2)C[C@H]1C(=O)N[C@@H](CC(F)F)C(=O)NCCc1cccc(OCC(=O)O)c1)C(C)C` [Compound 562], for which the IC50 was less than 100000 nM.
Same read-out and setting: the figure for `CC(C)COC(=O)N[C@H](C(=O)N1C[C@H](c2ccccc2)C[C@H]1C(=O)N[C@@H](CS)C(=O)NCCc1ccc(C(=O)O)cc1Cl)C(C)C` [Compound 521] is less than 1000 nM.
`CCCS[C@@H]1C[C@@H](C(=O)N[C@@H](CC(F)F)C(=O)NCCc2c(F)cc(C(=O)O)cc2F)N(C(=O)[C@@H](NC(=O)OCC(C)C)C(C)C)C1` [Compound 548]: the IC50 was less than 1000 nM.
Regarding `CC(C)COC(=O)N[C@H](C(=O)N1C[C@H](S(=O)(=O)C2CCCCC2)C[C@H]1C(=O)N[C@@H](CC(F)F)C(=O)NCCc1c(F)cc(-c2nn[nH]n2)cc1F)C(C)C` [Compound 556], the IC50 was less than 1000 nM.
Still for that read-out and setting: the figure for `CC(C)COC(=O)N[C@@H](CCC(=O)O)C(=O)N1C[C@H](c2ccccc2)C[C@H]1C(=O)N[C@@H](CS)C(=O)NCCc1ccc(C(=O)O)cc1` [Compound 512] is less than 100000 nM.
On to `CC(C)[C@H](NC(=O)OC1CCCC1)C(=O)N1C[C@H](C2CCCCC2)C[C@H]1C(=O)N[C@@H](CC(F)F)C(=O)NCCc1c(F)cc(C(=O)O)cc1F` [Compound 541], for which the IC50 was less than 1000 nM.
With `COC(=O)c1ccc(CCNC(=O)[C@H](CS)NC(=O)[C@@H]2C[C@@H](c3ccccc3)CN2C(=O)[C@H](CCC(=O)O)NS(=O)(=O)c2cccc3ccccc23)cc1` [Compound 514], the IC50 is less than 100000 nM.
Turning to `CC(C)COC(=O)N[C@H](C(=O)N1C[C@H](c2ccccc2)C[C@H]1C(=O)N[C@@H](CC(F)F)C(=O)NCCc1cccc(NC(C(=O)O)c2ccccc2)c1)C(C)C` (mixture of isomers) [Compound 564], the IC50 is less than 10000 nM.
For `CC(C)COC(=O)NC(CCC(=O)O)C(=O)N1CCCC1C(=O)NC(CS)C(=O)NCCc1ccccc1Cl` (stereo not shown) [Compound 501], the IC50 was less than 100000 nM.
As for `CC(C)COC(=O)N[C@H](C(=O)N1C[C@H](c2ccccc2)C[C@H]1C(=O)N[C@@H](CC(F)F)C(=O)NCCc1cc(/C=C/C(=O)O)ccc1F)C(C)C` [Compound 561], the IC50 is less than 1000 nM.
Regarding `COc1cccc(S[C@@H]2C[C@@H](C(=O)N[C@@H](CC(F)F)C(=O)NCCc3c(F)cc(C(=O)O)cc3F)N(C(=O)[C@@H](NC(=O)OCC(C)C)C(C)C)C2)c1` [Compound 545], the IC50 was less than 1000 nM.
The same measure, in the same setting: the figure for `COc1cccc(S(=O)(=O)[C@@H]2C[C@@H](C(=O)N[C@@H](CC(F)F)C(=O)NCCc3c(F)cc(C(=O)O)cc3F)N(C(=O)[C@@H](NC(=O)OCC(C)C)C(C)C)C2)c1` [Compound 547] is less than 1000 nM.
The same measure, in the same setting: under `CC(C)[C@H](NC(=O)OCC1CC1)C(=O)N1C[C@H](C2CCCCC2)C[C@H]1C(=O)N[C@@H](CC(F)F)C(=O)NCCc1c(F)cc(C(=O)O)cc1F` [Compound 540] stands less than 1000 nM.

The assay is the same for the next values; noted with them: Table 6; full-length NS3/NS4A; read-out: Assay A.
For `CC(C)[C@H](O)C(=O)N1C[C@H](OCCCc2ccccc2)CC1C(=O)N[C@@H](CC(F)F)C(=O)NCCc1c(F)cc(C(=O)O)cc1F` (stereo partly shown) [Compound 616], the IC50 was less than 100000 nM.

The values are drawn from patent US7119073B2, “Peptides and their use as inhibitors of hepatitis C virus ns3 protease” (Istituto Di Ricerche Di Biologia Molecolare P. Angeletti SpA, priority 2001, dated 2006).
